# Laboratory results published in patent publication US8586107B2, “Schisandra sphenanthera fruit extract and cosmetic, dermatological, and nutraceutical compositions comprising same” (Laboratoires Expanscience, priority 2009, dated 2013).
# Marks after values point to notes of the source that are not given here.
# Legend:
# [1] = test system: interleukin-8 (IL-8) secretion; assay: IL-8 secretion induced by PMA in keratinocytes (ELISA); assay type: cell-based, human
# Protocol: (§1) Normal human keratinocytes were preincubated for 24 hours with Schisandra peptides at concentrations of 0.005% and 0.05% or with 10^-7 M dexamethasone (anti-inflammatory reference molecule).
# (§2) Inflammation was then induced by treatment with 10 μg/ml PMA for 24 hours, always in the presence of Schisandra peptides or dexamethasone.
# (§3) At the end of incubation, the quantities of interleukin-1β (IL-1β), interleukin-8 (IL-8) and interleukin-6 (IL-6) present in the culture supernatants were measured by ELISA.
# (§4) In parallel, the number of biologically active cells is determined by a neutral red test. The quantity of cytokine assayed for each condition is reduced to the number of living cells by dividing by the OD540 value obtained at the end of the neutral red test.
# VEGF secretion = assay: VEGF protein release induced by PMA in keratinocytes (ELISA); assay type: cell-based, human
# Protocol: Normal human keratinocytes were preincubated for 24 hours with Schisandra peptides at concentrations of 0.005%, 0.05% and 0.1% or with 10^-7 M dexamethasone (anti-inflammatory reference molecule).
# as §2
# At the end of incubation, the quantity of VEGF present in the culture supernatants was measured by ELISA.
# as §4
# The significance of the results was verified by a single-factor analysis of variance followed by a Tukey's test (GraphPad Prism version 5.02 software, GraphPad Software, San Diego, Calif., USA).
# [2] = test system: interleukin-1β (IL-1β) secretion; assay: IL-1β secretion induced by PMA in keratinocytes (ELISA); assay type: cell-based, human
# Protocol: as §1, §2, §3, §4
# [3] = test system: interleukin-6 (IL-6) secretion; assay: IL-6 secretion induced by PMA in keratinocytes (ELISA); assay type: cell-based, human; conditions: for IL-6: keratinocytes
# Protocol: as §1, §2, §3, §4
# [4] = test system: kallikrein 5 (KLK5) gene expression; assay: KLK5 gene expression induced by calcitriol in keratinocytes (real-time RT-PCR); assay type: cell-based, human; conditions: NHEK, 24 hours
# Protocol: (§5) In order to evaluate the potential activity of Schisandra peptides in the inflammatory phase of rosacea, we studied the effect of this complex of active agents on kallikrein 5 (KLK5) and cathelicidin (LL37) gene expression induced by a vitamin D analogue (calcitriol) in keratinocytes.
# (§6) Normal human epidermal keratinocytes (NHEK) were cultivated in culture medium supplemented with Ca++ in order to bring them to a state of differentiation.
# (§7) The keratinocytes were treated for 24 hours with 0.05% (w/v) Schisandra peptides in the presence or absence of 10^-7 M calcitriol (vitamin D analogue).
# (§8) At the end of the treatment, the culture supernatants were eliminated and total RNA extracted using an extraction kit (RNeasy Mini Kit, Qiagen). Total RNA were then assayed in chips using the Experion™ system and the Experion RNA StdSens kit (Bio-Rad) and then reverse-transcribed into cDNA using the iScript cDNA Synthesis kit (Bio-Rad).
# (§9) The neo-synthesized cDNA relating to the genes of interest (KLK5 and LL37) or to the reference genes were amplified selectively by real-time PCR on an iQ5 system (Bio-Rad) using SybrGreen technology (iQ SybrGreen kit, Bio-Rad).
# (§10) The real-time RT-PCR method enables the relative quantification of the expression level of a gene of interest in relation to that of a reference gene in response to a given treatment.
# (§11) The quantitative analysis of the results is based on the collection of threshold cycles.
# (§12) The threshold cycle is […] correlated with the initial number of copies of target DNA.
# (§13) ΔCt is thus calculated as follows: ΔCt=Cttarget gene−Ctreference gene
# (§14) In a second step, the variation, as a function of the treatment and the number of copies of the gene of interest, was determined. ΔΔCt is thus calculated as follows: ΔΔCt=ΔCtcontrol−ΔCttreated
# (§15) Lastly, relative quantity (RQ) is calculated: RQ=(1+E)ΔΔCt.
# (§16) E (efficiency) is considered equal to 1, and thus: RQ=2ΔΔCt
# (§17) The significance of the results was verified for the ΔCt values by a single-factor analysis of variance followed by a Tukey's test (GraphPad Prism version 5.02 software, GraphPad Software, San Diego, Calif., USA).
# [5] = test system: cathelicidin (LL37) gene expression; assay: LL37 gene expression induced by calcitriol in keratinocytes (real-time RT-PCR); assay type: cell-based, human; conditions: NHEK, 24 hours
# Protocol: as §5, §6, §7, §8, §9, §10, §11, §12, §13, §14, §15, §16, §17
# [6] = test system: Normal human dermal microvascular endothelial cells; assay: Endothelial cell proliferation in the absence or presence of VEGF (intracellular phosphatase activity); assay type: cell-based; conditions: 10 ng/ml VEGF
# Protocol: Normal human dermal microvascular endothelial cells were incubated for 24 or 48 hours in the absence (control) or presence of Schisandra peptides at concentrations of 0.05% and 0.1% and in the presence and absence of 10 ng/ml vascular endothelial growth factor (VEGF), the reference activator.
# At the end of incubation, cell viability was evaluated by a spectrophotometric assay of intracellular phosphatase activity.
# Statistical significance was evaluated by a single-factor analysis of variance followed by a Holm-Sidak test.
# endothelin production = assay: Endothelin production by dermal microvascular endothelial cells (ELISA); assay type: cell-based, human; conditions: 6 hours, 16.7 nM insulin
# Protocol: Endothelin is a neuropeptide with powerful vasoconstrictive activity. It is secreted by endothelial and epithelial cells (keratinocytes), fibroblasts, adipocytes and macrophages. The effect of Schisandra peptides on endothelin production by endothelial cells was studied.
# Normal adult human dermal microvascular endothelial cells cultivated in a monolayer were incubated for 6 hours in the absence (control) or the presence of 0.05% and 0.1% Schisandra peptides or 16.7 nM insulin (reference activator).
# At the end of the incubation period, secreted endothelin was quantified by ELISA. In parallel, the proteins contained in the cellular lysates were quantified by the Bradford method.
# The quantity of endothelin assayed was thus normalized with the quantity of total proteins, and the results were then expressed as the ratio of endothelin (ng) to total protein (μg) in the layer of cells.
# The statistical significance of the results was evaluated by a single-factor analysis of variance followed by a Holm-Sidak test.
# [7] = 10 μg/ml PMA 24 hours alone (stimulated control)
# [8] = 10^-7 M calcitriol alone (stimulated control)
# [9] = 10^-7 M calcitriol alone (stimulated control), control cells = 1
# [10] = 10−7 M dexamethasone 24 h preincubation + PMA 24 h
compound,measurement,setting,value
CCCCCCCCCCCCCC(=O)O[C@@H]1[C@@H](C)[C@@]2(O)[C@@H](C=C(CO)C[C@]3(O)C(=O)C(C)=C[C@@H]23)[C@@H]2C(C)(C)[C@]12OC(C)=O [PMA],IL-8,[1]; [7],2.056 ± 0.166 pg/ml/ODneutral red
same,VEGF,VEGF secretion; [7],3333.861 ± 111.766 pg/ml/ODneutral red
same,IL-1β,[2]; [7],0.106 ± 0.008 ODELISA-ODneutral red
same,IL-6,[3]; [7],0.098 ± 0.002 ODELISA/ODneutral red
C=C1/C(=C\C=C2/CCC[C@]3(C)[C@@H]([C@H](C)CCCC(C)(C)O)CC[C@@H]23)C[C@@H](O)C[C@@H]1O [calcitriol],Stimulation of kallikrein 5 gene expression vs. control cells,[4]; 10^-7 M calcitriol,+149%
same,Mean ΔCt (CtKLK5 − CtGAPDH),[4]; [8],2.46
same,ΔΔCt (KLK5),[4]; [8],1.32
same,KLK5 expression (RQ),[4]; [9],2.49$$
same,Stimulation of LL37 gene expression vs. control cells,[5]; 10^-7 M calcitriol,+795%
same,Mean ΔCt (CtLL37 − CtGAPDH),[5]; [8],11.01
same,ΔΔCt (LL37),[5]; [8],3.16
same,LL37 expression (RQ),[5]; [9],8.95$$$
C[C@@H]1C[C@H]2[C@@H]3CCC4=CC(=O)C=C[C@]4(C)[C@@]3(F)[C@@H](O)C[C@]2(C)[C@@]1(O)C(=O)CO [dexamethasone],IL-8,[1]; [10],0.973 ± 0.213 pg/ml/ODneutral red
same,VEGF,VEGF secretion; 10^−7 M dexamethasone 24 h preincubation + PMA 24 h,1789.338 ± 489.677 pg/ml/ODneutral red
same,IL-1β,[2]; [10],0.037 ± 0.011 ODELISA-ODneutral red
same,"IL-6 release, change vs. stimulated control (PMA)",[3]; 10−7 M dexamethasone,−56%***
same,IL-6,[3]; [10],0.043 ± 0.012 ODELISA/ODneutral red
VEGF,"Endothelial cell growth, stimulation in relation to control cells",[6]; 24 hours,+41.4%
same,"Endothelial cell growth, stimulation in relation to control cells",[6]; 48 hours,+96.3%
insulin: reference activator of endothelin production,"Endothelin production, change vs. control cells",endothelin production,+30%
same,Endothelin,endothelin production; endothelial cells,1.72 ± 0.23 ng/μg of proteins
